Assay results taken from the RepoRT retention time repository (doi:10.1038/s41586-021-03707-9).

What was measured:
[1] = Waters ACQUITY UPLC BEH C18, 100 × 2.1 mm, 1.7 µm, 40 °C, 0.28 mL/min, estimated dead time 0.63 min; A: water + 6.5 mM ammonium hydroxide; B: methanol + 6.5 mM ammonium hydroxide; gradient (min/%B) 0/0.5 4/70 4.5/98 5.4/98; settings: stereoisomer not certain
[2] = RP, Waters ACQUITY UPLC HSS C18, 100 × 2.1 mm, 1.7 µm, 40 °C, 0.35 mL/min, estimated dead time 0.63 min; A: water + 0.1% formic acid; B: methanol + 0.1% formic acid; gradient (min/%B) 0/0.5 4/70 4.5/98 5.4/98; settings: stereoisomer not certain

| LC retention time [1] [min] | LC retention time [2] [min] | SMILES |
| --- | --- | --- |
| 0.916 | 0.903 | CC(=O)NC(CCCCN)C(=O)O (stereo unspecified) |
| 0.832 | 2.59 | O=C(O)c1ccc(O)c(O)c1O |
| 5.35 | 4.43 | CCOC(=O)C1=CC(OC(CC)CC)C(NC(C)=O)C(N)C1 (stereo unspecified) |
| 2.72 | 4.09 | COc1ccc2[nH]cc(CC(=O)O)c2c1 |
| 3.49 | 4.18 | O=C(O)CNC(=O)C=Cc1ccccc1 |
| 2.3 | 2.66 | O=C1NS(=O)(=O)c2ccccc21 |
| 4.23 | 4.15 | Oc1ccc(C=Cc2cc(O)cc(O)c2)cc1 |
| 1.73 | 1.29 | Nc1ccn(C2CC(O)C(CO)O2)c(=O)n1 (stereo unspecified) |
| 2.98 | 2.9 | Oc1ccc2[nH]ccc2c1 |
| 1.93 | 1.94 | Oc1cccc(O)c1O |
| 2.54 | 1.82 | CNC(=O)c1cccnc1 |
| 2.15 | 3.04 | O=C(NO)c1ccccc1O |
| 0.803 | 0.814 | C[N+](C)(C)CCCC(=O)[O-] |
| 4.93 | 3.34 | Cc1cc2nc[nH]c2cc1C |
| 4.18 | 4.36 | COC(=O)c1ccc(O)c(OC)c1 |
| 1.94 | 1.87 | CC1CNC(=O)NC1=O (stereo unspecified) |
| 1.2 | 1.14 | O=C(O)c1ccccn1 |
| 1.31 | 1.56 | Nc1ncnc2c1ncn2C1CC(O)C(COP(=O)(O)O)O1 (stereo unspecified) |
| 0.861 | 0.77 | CN1CC(=O)NC1=N |
| 0.857 | 2.87 | CCC(C)(O)C(=O)O (stereo unspecified) |
| 1.95 | 2.59 | NCCCCCCCC(=O)O |
| 1.77 | 0.85 | Cc1ncc(CO)c(C=O)c1O |
| 5.22 | 5.02 | CC12CCC(=O)C=C1CCC1C2C(O)CC2(C)C1CCC2(O)C(=O)CO (stereo unspecified) |

| LC retention time [1] [min] | LC retention time [2] [min] | SMILES |
| --- | --- | --- |
| 0.801 | 0.759 | NC(N)=NCC(=O)O |
| 0.876 | 0.854 | CC(=O)OCC(N)C(=O)O (stereo unspecified) |
| 1.81 | 2.78 | Cn1c(=O)[nH]c2[nH]c(=O)n(C)c2c1=O |
| 3.12 | 3.56 | NC(=O)c1ccccc1O |
| 1.29 | 0.91 | CC(=O)NCCCCN |
| 2.18 | 3.65 | COc1cccc(OC)c1C(=O)O |
| 0.852 | 2.41 | Nc1ccc(C(=O)O)cc1 |
| 1.72 | 2.92 | O=C(O)Cc1c[nH]c2ccc(O)cc12 |
| 1.62 | 0.911 | Cc1cnc(=O)[nH]c1N |
| 2.14 | 1.4 | NC(=O)c1cccnc1 |
| 5.38 | 5.21 | CCOC(=O)Cc1c[nH]c2ccccc12 |
| 0.87 | 2.36 | O=C(O)c1ccc(CO)o1 |
| 3.87 | 3.49 | Cc1ccc(O)c(O)c1 |
| 1.89 | 3.42 | COc1cc(CC(=O)O)ccc1O |
| 0.806 | 0.821 | CC(C)(N)C(=O)O |
| 2.69 | 3.49 | O=C(O)CNC(=O)Cc1ccccc1 |
| 2.02 | 2.8 | O=C(NC(O)C(=O)O)c1ccccc1 (stereo unspecified) |
| 0.847 | 3.01 | Nc1nc2ncc(CNc3ccc(C(=O)NC(CCC(=O)O)C(=O)O)cc3)nc2c(=O)[nH]1 (stereo unspecified) |
| 0.906 | 0.795 | O=C1OC(CO)C(O)C(O)C1O (stereo unspecified) |
| 2.67 | 3.88 | CC1NC(=O)NC1CCCCCC(=O)O (stereo unspecified) |
| 4.22 | 4.13 | COc1cc(O)cc(OC)c1 |
| 2.84 | 4.48 | COc1ccc(O)c(C(=O)O)c1 |
| 2.75 | 2.9 | Cn1c(=O)c2[nH]cnc2n(C)c1=O |

| LC retention time [1] [min] | LC retention time [2] [min] | SMILES |
| --- | --- | --- |
| 1.94 | 1.88 | Cc1c[nH]c(=O)[nH]c1=O |
| 0.928 | 1.58 | CCC(NC(=O)CCC(N)C(=O)O)C(=O)NCC(=O)O (stereo unspecified) |
| 5.05 | 4.87 | CC12CCC(=O)C=C1CCC1C2C(=O)CC2(C)C1CCC2(O)C(=O)CO (stereo unspecified) |
| 2.36 | 3.39 | O=Cc1ccc(O)cc1 |
| 0.874 | 0.765 | O=C(O)CN(CCO)CCO |
| 1.77 | 1.58 | NC(=O)c1ncn(C2OC(CO)C(O)C2O)c1N (stereo unspecified) |
| 3.72 | 3.45 | CC1(C)SC2C(NC(=O)C(N)c3ccccc3)C(=O)N2C1C(=O)O (stereo unspecified) |
| 0.962 | 0.86 | OCC1OC(OC2(CO)OC(CO)C(O)C2O)C(O)C(O)C1O (stereo unspecified) |
| 0.813 | 1.35 | O=c1ccn(C2CC(O)C(COP(=O)(O)O)O2)c(=O)[nH]1 (stereo unspecified) |
| 1.87 | 1.99 | Nc1nc2c(ncn2C2OC3COP(=O)(O)OC3C2O)c(=O)[nH]1 (stereo unspecified) |
| 4.12 | 5.18 | CCCCCCC(O)C(=O)O (stereo unspecified) |
| 3.44 | 5.29 | Cc1cccc(C(=O)O)c1O |
| 2.21 | 2.2 | Nc1ccccc1C(=O)CC(N)C(=O)O (stereo unspecified) |
| 2.17 | 2.97 | CCC(C)C(=O)NCC(=O)O (stereo unspecified) |
| 2.36 | 1.76 | NC(=O)C1CCCN1C(=O)C(Cc1cnc[nH]1)NC(=O)C1CCC(=O)N1 (stereo unspecified) |
| 0.849 | 0.864 | CC(=O)OC(CC(=O)[O-])C[N+](C)(C)C (stereo unspecified) |
| 0.908 | 1.76 | Cc1cn(C2CC(O)C(COP(=O)(O)O)O2)c(=O)[nH]c1=O (stereo unspecified) |
| 4.19 | 4.05 | COc1ccc2[nH]cc(CCNC(C)=O)c2c1 |
| 1.05 | 0.835 | OCC1OC(OCC2OC(OC3(CO)OC(CO)C(O)C3O)C(O)C(O)C2O)C(O)C(O)C1O (stereo unspecified) |
| 3.09 | 3.01 | CC(=O)NCCc1c[nH]c2ccc(O)cc12 |
| 1.11 | 2.09 | O=c1[nH]c(=O)c2ncn(C3OC(CO)C(O)C3O)c2[nH]1 (stereo unspecified) |
| 1.51 | 2.87 | O=C(O)C(O)Cc1ccc(O)cc1 (stereo unspecified) |
| 2.89 | 2.82 | OCc1ccccc1OC1OC(CO)C(O)C(O)C1O (stereo unspecified) |

| LC retention time [1] [min] | LC retention time [2] [min] | SMILES |
| --- | --- | --- |
| 3.46 | 2.44 | NC(=O)C(N)Cc1c[nH]c2ccccc12 (stereo unspecified) |
| 4.57 | 4.88 | CCCCCCSCC(NC(=O)CCC(N)C(=O)O)C(=O)NCC(=O)O (stereo unspecified) |
| 0.823 | 3.64 | O=C(O)C(O)c1ccc(O)cc1 (stereo unspecified) |
| 0.886 | 3.47 | O=C(O)c1cccc(O)c1 |
| 2.57 | 3.18 | O=C(O)c1cc(=O)c2ccccc2[nH]1 |
| 3.63 | 3.52 | NC(=O)Cc1c[nH]c2ccccc12 |
| 2.58 | 2.51 | CC(=O)Nc1ccc(O)cc1 |
| 1.9 | 1.97 | NC(Cc1c[nH]c2ccc(O)cc12)C(=O)O (stereo unspecified) |
| 0.778 | 0.779 | NC1(C(=O)O)CC1 |
| 0.812 | 0.909 | NCCCCC(=O)O |
| 2.09 | 1.91 | O=C(O)c1ccnc2ccccc12 |
| 0.799 | 0.855 | NC(=O)NC1NC(=O)NC1=O (stereo unspecified) |
| 4.91 | 3.94 | CC(C)=CCNc1ncnc2nc[nH]c12 |
| 2.07 | 2.98 | CSCCC(NC(C)=O)C(=O)O (stereo unspecified) |
| 3.32 | 2.34 | O=C(O)CNC(=O)CCc1ccccc1 |
| 2.49 | 4.22 | [2H]c1[nH]c2c([2H])c([2H])c([2H])c([2H])c2c1CC(=O)O |
| 1.67 | 1.66 | O=c1ccn(C2OC(CO)C(O)C2O)c(=O)[nH]1 (stereo unspecified) |
| 2.67 | 3 | Cc1ccc(S(=O)(=O)O)cc1 |
| 3.29 | 4.08 | CCCCCC(=O)NCC(=O)O |
| 0.818 | 0.808 | NC(C(=O)O)c1ccc(O)cc1 (stereo unspecified) |
| 0.769 | 0.761 | NCCCC(=O)O |

| SMILES | LC retention time [1] [min] | LC retention time [2] [min] |
| --- | --- | --- |
| NCC(O)c1ccccc1 (stereo unspecified) | 3.07 | 2.04 |
| COc1ccc(OC)c(C(O)C(C)N)c1 (stereo unspecified) | 3.99 | 3.14 |
| NCCc1c[nH]c2ccccc12 | 3.67 | 2.82 |
| O=C(O)c1ccc(=O)[nH]c1 | 0.819 | 1.96 |
| COc1cc(CCN)ccc1O | 2.57 | 1.99 |
| O=C(O)Cc1cnc[nH]1 | 0.817 | 0.825 |
| Nc1ccccc1C(=O)O | 1.76 | 3.65 |
| CNCC(O)c1ccc(O)cc1 (stereo unspecified) | 1.96 | 0.855 |
